Assays:
[1] = test system: 3NP-lesioned C57BL/6 mice; assay: 3-nitropropionic acid (3NP) model of Huntington's disease; format: in vivo; settings: for COX-2 (2expΔΔct) / IL-6 (2expΔΔct) / TNF-α (2expΔΔct): striatum mRNA, mean ± SEM n=6; for COX-2 (2expΔΔct) / IL-6 (2expΔΔct) / TNF-α (2expΔΔct) / % GSH / % SOD activity / %Catalase activity: substance alone; for % GSH / % SOD activity / %Catalase activity: striatum, % of vehicle-treated control
Description: Figure 7 VCE-003.2 is neuroprotective in 3NP-intoxicated mice. (a) Behavioural score was determined 12 hours after 3NP intoxication. Mice were treated with VCE-003.2 (20 mg/Kg) alone or combined with T0070907 (5 mg/kg) as indicated. Animals were also treated separately with either VCE-003.2 or T0070907 alone. Hind limb clasping, general locomotor activity, hind limb dystonia and kyphosis were rated from 0 to 2 based on severity (score 0 indicates normal function and 2 indicates the most severe affected function). Values are expressed as means ± SEM (n = 6). (b) Representative images of Nissl staining performed on coronal striatal brain sections from the same mice groups. Photomicrographs of NeuN (Bar size, 50 μm) Iba-1 and glial fibrillary acidic protein (GFAP) immunostained sections through the different group of mice are also shown. (c) Quantification of the different markers was performed with Image J software. Total average number of neurons (NeuN^+), microglia (Iba1^+) and astrocytes (GFAP^+) is shown. Values are expressed as means ± SEM (n = 6). *p < 0.05, **p < 0.01, ***p < 0.001 vs. Vehicle; ^#p < 0.05, ^##p < 0.01, ^###p < 0.001 vs. 3NP; †p < 0.05, ^††p < 0.01, ^†††p < 0.001 vs. the 3NP + VCE-003.2 group.
Mice were housed under standard conditions (12-h light/dark cycle) in groups with access to food and water ad libitum. All experiments were performed in accordance with European Union guideline and approved by the Animal Research Ethic Committee of Córdoba University (2014PI/017) (3NP model) and by the Animal Research Ethic Committee of Complutense University (CEA-UCM 73/2012) (QA model). Procedures were designed to minimize the number of animals used and their suffering. Excitotoxicity was induced by intrastriatal quinolinic acid (QA) administration (100 nmol in 1 μL PBS solution, unilaterally) as previously described[41] at the following coordinates: +0.6 posterior to bregma, +1.85 medio-lateral and -2.7 dorso-ventral to dura, in 12-week-old CD1 male mice (Harlan Ibérica, Barcelona, Spain). Pharmacological manipulation with VCE-003.2 (10 mg/kg body weight) was performed i.p. daily in 2% Tween 20 and 3% DMSO in saline buffer until sacrifice. Control animals received the corresponding vehicle injections. Motor function was assessed by RotaRod analysis conducted with acceleration from 4 to 40 rpm over a period of 570 s in an LE8200 device (Harvard Apparatus, Barcelona, Spain). […] 3NP-treated animals and their respective non-lesioned controls (injected with PBS) were used for pharmacological studies with VCE-003.2. Treatments consisted of 4 i.p. injections every 24 h with 20 mg/kg VCE-003.2 or vehicle (4% DMSO plus 6,2% Tween 20 in saline buffer), with the first and the last injections 30 min before the first and the last injections of 3NP, respectively. In some experiments, mice received a combination of VCE-003.2 and the PPARγ antagonist T0070907 (5 mg/kg) injected 15 minutes before VCE-003.2. In 3NP-lesioned mice, motor activity, hindlimb clasping, dystonia, and truncal dystonia were evaluated following previously described procedures. All behavioural tests were conducted prior to drug injections to avoid acute effects of the compounds under investigation and all animals were euthanized 12 h after the last injection of 3NP and their brains removed. The right hemispheres were used to dissect the striatum which was frozen in RNAlater (Sigma-Aldrich) and stored at −80 °C for biochemical analyses. The left hemispheres were fixed in fresh 4% paraformaldehyde (in 0.1 M PBS) for 48 h at 4 °C and embedded in paraffin wax for staining and immunohistochemical analysis. In all experiments, at least 6 animals were used per experimental group.
Free floating coronal brain slices ([…]) were processed as previously described. […]

Keap1/Nrf2 pathway = Keap1/Nrf2 pathway activation (unpublished results)
3NP-lesioned mice = settings: cited from earlier work
N2a cells [2] = assay: N2a cytotoxicity assay (MTT); format: cell-based; settings: 24 hours
Description: Figure 1 VCE-003.2 synthesis and characterization. (a) Schematic representation of VCE-003.2 synthesis. […] The indicated concentrations were tested and results were plotted to obtain the polynomial trend on a logarithmic range. IC50 values are indicated within the graph. […]. HEK293 cells were co-transfected with GAL4-PPARγ and GAL4-luc and incubated with the indicated compound concentrations for 6 hours prior to luciferase activity determination. Results are expressed as the fold induction ± S.D. relative to untreated control. (d) N2a cells were incubated with VCE-003 and VCE-003.2 as indicated during 24 hours and cell viability was determined by the MTT assay. Results are expressed as percentage of cell viability against the negative control (100%). (e) N2a cells were pre-treated with the compounds for 30 min and incubated during 24 h with 15 mM glutamate and cell viability determined by MTT. Results are expressed as percentage of cell viability against the negative control (100%). All experiments are shown as mean ± S.D. from at least three independent experiments. Statistics: *^,#,†p < 0.05, **^,##,††p < 0.01 and ***^,###p < 0.001. […] | Briefly, N2a cells were seeded at a density of 1 × 10^3 cells/well in 96-well plates, treated with increasing concentrations of VCE-003 or VCE-003.2 for 24 hours and cell viability was measured by the MTT method. […]. […]

Nrf2 pathway = assay: Nrf2 transcriptional assay (NQO1-ARE-Luc) in N2a cells; format: cell-based; settings: 6 hours
Description: (§1) Nrf2 transcriptional assay: To study Nrf2 transcriptional activity N2a cells were seeded (105/ml) in 24-well plates and transientl y transfected with the plasmid NQO1-ARE-Luc using Roti©-Fect following the manufacturer’s instructions (Carl Roth, Karlsruhe, German y). After 24 hours, cells were incubated wi th the compounds at the concentrations indicated during 6 hours and the luciferase activit y was determined using an Autolumat LB 953 (EG&G Berthold, Bad Wildbad, Germany). Protein content was determined b y the Bradford method to calculate R LU/Pg of protein and the results were expressed as a fold induction over untreated cells.
Supplementary Figure S1. Non-elect rophilic activity for VCE-003.2. (a) Reactive ox ygen species production.
In cu c yt e TM Liv e-Cell Im agin g S ystem. Results are ex pressed as m ean of t otal integrated intensity (ROS positive cells) ± S.D. (b) Effect on Nrf2 transcriptional activity. N2a cells were transientl y trans fected with the NQO1-ARE-Luc plasmid and incubated with the indicated compound concentrations for 6 hours prior to luciferase activit y determination.
Results are expressed as the fold induction ± S.D. relative to untreated control. All the results are representative of at least three independent experiments. Statistics: **p<0.01 VCE-003 treatment vers us Vehicle treated cells.

[3] = Cysteamine recovery assay (thiol trapping)
Description: cysteamine to form polar and not extractable adducts.
(§2) Determination of ROS: N2a cells were seeded at 25x 10^3 cells/ml in 96-well plates and incubated with 0.25 ȝM 5-(and-6 )-chloro meth yl-2ƍ,7ƍ-dichlorodihydrofluorescein diacetate acet yl ester (C M-H 2 DCFDA) for 20 minutes at 37°C. Then, the cells were treated with either VCE-003 or VCE-003.2 for 2 hours. Cells exposed to pro-oxidant tert-Butyl h ydroperoxide (TBHP) were used as positive control. H 2 DCFDA oxidation was detected using an Incuc yteTM Live-Cell Imaging S ystem (Hertfordshire, UK).
as §1

N2a cells [4] = assay: Reactive oxygen species production in N2a cells (CM-H2DCFDA); format: cell-based; settings: 2 hours
Description: as §2
Supplementary Figure S1. Non-elect rophilic activity for VCE-003.2. (a) Reactive ox ygen species production. N2a cells were stained with CM-H2DCFDA and treated with VCE-003 or VCE-003.2 for 2 hours. Then, reactive ox ygen sp ecies were measured b y In cu c yt e TM Liv e-Cell Im agin g S ystem. Results are ex pressed as m ean of t otal integrated intensity (ROS positive cells) ± S.D. (b) Effect on Nrf2 transcriptional activity.
VCE-003 treatment vers us Vehicle treated cells.

Row | Structure (SMILES) | behavioural score, substance alone ([1]; mice given the substance alone) | COX-2 (2expΔΔct) [1] | IL-6 (2expΔΔct) [1] | TNF-α (2expΔΔct) [1] | % GSH [1] [%] | % SOD activity [1] | %Catalase activity [1] | also measured
1 | O=C(O)CC[N+](=O)[O-] [3NP, 3-nitropropionic acid, reference compound] | high scores in hindlimb clasping, locomotor activity, hindlimb dystonia and kyphosis | 4.69 ± 0.09^* 2expΔΔct | 4.28 ± 0.08^* 2expΔΔct | 5.19 ± 0.327^** 2expΔΔct | 67.16 ± 5.06 | 56.56 ± 1.05^** % | 58.85 ± 2.17^*** % | number of neurons in the striatum (Nissl, NeuN), substance alone ([1]; mice given the substance alone): reduced the number of neurons in the striatum
2 | C=C(C)[C@@H]1CCC(C)=C[C@H]1C1=C(O)C(=O)C(CCCCC)=CC1=O [CBD-hydroxy-quinone] | – | – | – | – | – | – | – | activation of the Keap1/Nrf2 pathway (Keap1/Nrf2 pathway): activates the Keap1/Nrf2 pathway
3 | CCCCCc1cc(O)c(C/C=C(\C)CCC=C(C)C)c(O)c1 [CBG, cannabigerol] | – | – | – | – | – | – | – | levels of GSH in the brain (3NP-lesioned mice): restores the levels of GSH in the brain of 3NP-lesioned mice
4 | O=C(Nc1ccncc1)c1cc([N+](=O)[O-])ccc1Cl [T0070907, reference compound] | Neither VCE-003.2 nor T0070907 alone influenced the behavior of the animals | 1.45 ± 0.82 2expΔΔct | 1.57 ± 0.51 2expΔΔct | 1.54 ± 0.75 2expΔΔct | 115.82 ± 11.23 | 97.61 ± 27.44% | 92.18 ± 4.1% | –
5 | CCCCCC1=CC(=O)C(C/C=C(\C)CCC=C(C)C)=C(O)C1=O [VCE-003, reference compound] | – | – | – | – | – | – | – | cell viability / cytotoxic activity (N2a cells [2]): clear cytotoxic activity at the highest concentrations tested; activation of the Nrf2 pathway (Nrf2 pathway): activated the Nrf2 pathway; recovery after treatment with cysteamine (thiol-trapping reactivity) [3]: undetectable in the residue; induction of reactive oxygen species (ROS) (N2a cells [4]): induced reactive oxygen species (ROS)

— paper PMC4949444 (Scientific Reports, 2016)
